Patent US12582696B2, “Debaryomyces species as an indicator of non-healing ulcers in Crohn's disease” (Washington University, priority 2019, dated 2026)
Converted amounts (≈) assume the structure as drawn.

Tests used:
[1] = test system: mucosal wounds in the distal colon of mice; assay: colonic biopsy injury model, mucosal wound repair in VNAM-treated mice; format: in vivo; conditions: day 12 post-injury
Text: To test the role of microbes in mucosal wound repair, a biopsy injury model was used where the timing and site of injuries are known in each experiment. Wound repair in this model occurs in distinct phases. Barrier re-establishment begins immediately upon injury and lasts for 4 days, and is characterized by the formation of wound associated epithelial (WAE) cells that cover the denuded mucosa. Wound channel formation phase (day 4-day 8), involves extensive proliferation of epithelial cells in crypts adjacent to the wound, forming channels that emanate towards the center of the wound. These two phases culminate in the formation of new crypts that is complete within 12 days post-injury.
C57BL6 WT were purchased from Jackson Laboratories (Bar Harbor, ME) or Taconic Biosciences and acclimatized in a specific pathogen-free facility for 1 week before conducting any experiment. […]
(§1) For hematoxylin and eosin (H&E) staining, wounds were collected and embedded in optimum cutting temperature (OCT) formulation (Thermo Fisher Scientific), and 5 μm frozen sections were obtained using a cryostat. […] Images were analyzed using Olympus CellSens Standard imaging software to measure the wound bed length defined as the distance between the two farthest crypts in the center of the wound bed. 2-3 wounds per mouse were analyzed and wound bed lengths were averaged to obtain one value per mouse. […]

[2] = test system: PGE2; assay: wound PGE2 levels in VNAM administered, biopsy injured mice; format: in vivo; conditions: day 6 post-injury, NS-398 vs vehicle, p<0.01
Method: Antibiotic-treated (VNAM) mice received the following cocktail for 4 weeks prior to biopsy injury until the day of sacrifice in drinking water: 0.5 g/L Vancomycin, 1 g/L Neomycin, 1 g/L Ampicillin, 1 g/L Metronidazole, and 1 g/L Kool-aid. Control mice received Kool-aid alone. Mice were treated with VNAM in the following figures: FIG. 8A-F, FIG. 9A-E, FIG. 12A-D, FIG. 13, FIG. 14, and FIG. 19A. […]

[3] = test system: fungi; assay: fungi in colonic wounds of biopsy-injured mice (ITS qPCR, anti-fungal antibody staining, ITS sequencing, SDA culture); format: in vivo; conditions: VNAM-treated mice; amphotericin B orally once daily from 3 days before injury to day 6 post-injury
Method: Quantitative PCR was performed on the mice of Ex. 4 to identify fungal microbiota within the intestinal wounds. About three fecal pellets or 10-50 mg samples of intestinal tissue were resuspended in Tris buffer supplemented with 1000 U/ml of lyticase (Sigma), 1 mM EDTA, and 0.2% β-mercaptoethanol (Sigma). DNA was extracted using either the DNeasy PowerLyzer PowerSoil kit (Qiagen) or DNA mini stool extraction kit (Qiagen) according to manufacturer's instructions.
Quantitative PCR was performed using SYBR Green (Roche) or SYBR Green Jumpstart Taq Ready mix (Sigma) on an Eppendorf Mastercycler (Eppendorf) using the following primers as described previously (23, 42, 52)—Saccharomyces cerevisiae: forward (5′-[…]-3′, SEQ ID NO:3), reverse (5′-[…]-3′, SEQ ID NO:4), Candida tropicalis: forward (5′-[…]-3′, SEQ ID NO:5), reverse (5′-[…]-3′, SEQ ID NO:6), Debaryomyces hansenii: forward (5′-[…]—3′, SEQ ID NO:7), reverse (5′-[…]-3′, SEQ ID NO:8) and ITS1-2: forward (5′-[…]-3′, SEQ ID NO:9), reverse (5′-[…]-3′, SEQ ID NO:10). The following conditions were used: 94° C. for 10 minutes, followed by 40 cycles of 94° C. for 30 seconds, 55° C. for 30 seconds, and 72° C. for 2 minutes, ending with 72° C. for 30 minutes. […]

[4] = test system: D. hansenii; assay: biopsy injury model in WT mice gavaged with D. hansenii CDA1 (human clinical isolate); format: in vivo; conditions: WT mice gavaged with D. hansenii CDA1 with or without amphotericin B; day 12 post-injury
Method: For inoculation experiments, yeasts were expanded in Sabouraud dextrose agar (SDA) for 2-4 days at 30° C. prior to gavage. Mice were gavaged with pure culture of D. hansenii (obtained from the wounds of antibiotic-treated mice or inflamed tissues of Crohn's disease) or Saccharomyces cerevisiae (ATCC) at ˜10^6 CFU/mouse, unless otherwise stated, in 150 μl of PBS. Controls received PBS only. For all inoculation experiments, gavage occurred 2 days before injury, on the day of injury, and 2, 4, and 6 days post-injury unless otherwise stated.
To ascertain whether human clinical isolates of D. hansenii were capable of inducing repair defects, the following experiments were conducted. WT mice were gavaged with D. hansenii CDA1 (Table 3) using methods similar to those described above. The CDA isolate was associated with impaired crypt regeneration in the biopsy injury model, and this effect was reversed by amphotericin B treatment (FIG. 11G, I).

[5] = test system: mucosal wounds in the distal colon of mice; assay: biopsy injury model in WT mice without VNAM or D. hansenii gavage; format: in vivo; conditions: amphotericin B in the absence of D. hansenii gavage and VNAM; day 12 post-injury
Text: C57BL6 WT were purchased from Jackson Laboratories (Bar Harbor, ME) or Taconic Biosciences and acclimatized in a specific pathogen-free facility for 1 week before conducting any experiment. Biopsy forceps and a miniaturized colonoscope system (Karl Storz) were used to create mucosal wounds in the distal colon of mice as described previously. Briefly, mice were anesthetized using ketamine/xylazine and stool pellets were removed from the colon by flushing with PBS. Next, 3 French biopsy forceps were inserted into the colon and 3-5 thickness areas of mucosa and submucosa were removed under the guidance of an endoscopy camera. Biopsy injured mice were euthanized, and wounds were collected on days 4, 6, 8, and 12 to evaluate healing. Biopsy injury was performed by investigators blinded to the treatments.
as §1

[6] = test system: Debaryomyces sp.; assay: mini screen with known water-soluble antifungals (MIC, dose-response); format: cell-based

## CS(=O)(=O)Nc1ccc([N+](=O)[O-])cc1OC1CCCCC1 [NS-398]
[1]; VNAM pre-treated mice, NS-398 2.5 mg/kg i.p. twice daily days 4-10
  wound bed length, NS-398 vs vehicle: not significant
[2]
  wound PGE2 levels: ablation of PGE2

## C[C@@H]1[C@H](O)[C@@H](C)/C=C/C=C/C=C/C=C/C=C/C=C/C=C/[C@H](O[C@@H]2O[C@H](C)[C@@H](O)[C@H](N)[C@@H]2O)C[C@@H]2O[C@](O)(C[C@@H](O)C[C@@H](O)[C@H](O)CC[C@@H](O)C[C@@H](O)CC(=O)O[C@H]1C)C[C@H](O)[C@H]2C(=O)O [amphotericin B]
[1]; VNAM-treated mice, amphotericin B orally
  crypt regeneration (wound bed length): reversed the crypt regeneration defects
[3]
  fungal antigen detection in the wounds: reduced fungal antigen detection
[4]
  impaired crypt regeneration caused by D. hansenii CDA1 (wound bed length): reversed
[5]
  repair of WT mice (wound bed length): did not demonstrate any obvious defects in repair

## CC[C@H](C)C[C@H](C)CCCCCCCCC(=O)N[C@H]1C[C@@H](O)[C@@H](NCCN)NC(=O)[C@@H]2[C@@H](O)CCN2C(=O)[C@H]([C@H](O)CCN)NC(=O)[C@H]([C@H](O)[C@@H](O)c2ccc(O)cc2)NC(=O)[C@@H]2C[C@@H](O)CN2C(=O)[C@H]([C@@H](C)O)NC1=O [caspofungin]
[6]; Debaryomyces
  MIC: 0.62 µg/mL (≈ 0.567 µM)
[6]; against Debaryomyces sp., water-soluble antifungals
  effectiveness compared to azoles in the antifungal screen: most effective at lowest concentrations
